These results are taken from PMC9960243, “Cytotoxic and Antileishmanial Effects of the Monoterpene β-Ocimene” (Pharmaceuticals, 2023).

Data set [1] concerns RAW 264.7 macrophages. Put plainly: Phagocytosis assay (stained zymosan). The settings on record: 3.12–25 μM, 72 h, macrophages not stimulated by L. amazonensis. In kind it is cell-based. The method, then:
RAW 264.7 macrophages were plated in a 96-well plate at 10^5 cells per well in 100 μL of DMEM medium containing different concentrations of β-ocimene (3.12–25 μM). The plate was incubated for 72 h at 37 °C and 5% CO2; after which 10 μL of stained zymosan per well was added, and the plate conditioned for 30 min at 37 °C. Then, 100 μL of Baker’s fixative (4% v/v formaldehyde, 2% w/v sodium chloride, and 1% w/v calcium acetate in distilled water) was added to stop phagocytosis, and 30 min later, the plate was washed with 0.9% saline to remove the zymosan not phagocytized by macrophages. Afterwards, the supernatant was removed and 100 μL of extraction solution was added and solubilized in a Kline shaker. Absorbances were measured at 540 nm.

Data set [2] relates to Leishmania amazonensis promastigote plasmatic membrane. In kind it is cell-based. As to conditions: not told. As for the experimental part: Plasma membrane integrity in promastigote forms of L. amazonensis treated with β-ocimene was evaluated using the SYTOX green dye method. Promastigote forms in logarithmic growth were seeded in Schneider medium and exposed to β-ocimene at concentrations corresponding to IC50, 2 × IC50 and 4 × IC50 in the presence of SYTOX green dye (5 μM) for 7 h at 26 °C in a BOD incubator. The plates were then read in a fluorescence reader with an emission filter of 523 nm and excitation at 488 nm.

For data set [3], the system named is RAW 264.7 macrophages uninfected and infected with Leishmania amazonensis. As to the kind of experiment: Th1/Th2 cytokine (ELISA) and nitric oxide (Griess) production in macrophage supernatants. The format is cell-based. The settings on record: 72 h. As for the experimental part: Modulation of Th1 (TNF-α, IL-12), Th2 (IL-10, IL-6), and NO cytokine production was investigated in the supernatants of infected macrophages, whether treated or untreated with β-ocimene. Cytokine concentration (pg/mL) in macrophage supernatants was determined using the ELISA sandwich technique according to the manufacturer’s (eBioscience) instructions, using interpolation with a standard curve of recombinant cytokines. Optical density was read at 450 nm using a microplate spectrophotometer.
Nitrite levels from the supernatants of the infected macrophages, whether treated or untreated with β-ocimene, were used indirectly to estimate NO production. The NO concentration (µM) was determined using the Griess reaction following a previously described methodology, by interpolation with a standard curve with NaNO2.
LPS (1 μg/mL) plus IFN-γ (1000 U/mL) were used as a positive control.
In general terms: An ELISA detects its analyte on a solid surface through an enzyme-linked reagent.

The test system of data set [4] is Promastigote forms of L. amazonensis. As to the kind of experiment: Parasite morphological evaluation using atomic force microscopy (AFM). In kind it is cell-based, Leishmania amazonensis. The settings on record: 1 × IC50 and 2 × IC50, 72 h. The method, then:
Promastigote forms of L. amazonensis were grown in 96-well plates at a concentration of 10^6 per well in complete Schneider medium. β-ocimene was added at concentrations equivalent to IC50, 2 × IC50, and 4 × IC50, and incubated at 26 °C for 72 h in BOD, and the parasites were then washed twice with ice-cold PBS (under 1100× g for 15 min at room temperature), and then fixed with 2.5% (v/v) glutaraldehyde in PBS, pH 7.2, for 1 h. Morphological analysis using AFM (TT-AFM equipment, AFM Workshop-USA), at a resonant frequency of approximately 242 kHz, was then performed.

Data set [5] concerns RAW 264.7 macrophages infected with Leishmania amazonensis. Put plainly: Treatment of infected macrophages (intra-macrophagic amastigotes, 72 h). The format is cell-based. As for the experimental part: In a 24-well plate with 13 mm round sterile cover slips, RAW 264.7 macrophages were added (at a concentration of 10^5 cells to 1 mL of supplemented DMEM. For cell adhesion, the plates were incubated at 37 °C and 5% CO2 for 3 h. Three washes were then performed with PBS at 37 °C to discard non-adherent cells, after which 1 mL of DMEM supplemented (stationary phase) promastigote forms of L. amazonensis was added at the ratio of 10 promastigotes per macrophage. The plate was then incubated at 5% CO2 and 37 °C for 4 h. After infection, the medium was aspirated and the treatment was added using 1 mL of DMEM supplemented with β-ocimene (3.12–25 μM) with the reference drugs, meglumine antimoniate (1.56–200 μM) and amphotericin B (0.031–2 μM), this was subsequently incubated at 37 °C and 5% CO2 for 72 h. Finally, the coverslips were removed, fixed, stained, and mounted on permanent slides using Entellan. The number of infected macrophages and the number of parasites per macrophage were counted: 300 cells were evaluated on each slide at 1000× magnification. The infection index was calculated by multiplying the number of infected macrophages by the number of amastigotes per infected macrophage. The negative control was performed using DMEM with 0.5% DMSO. The supernatant was removed at the end of the experiment and kept at −20 °C for later use in nitric oxide dosing tests.

Data set [6] in a line: Cytotoxic effect on mammalian cells, Vero. The format is cell-based. As to conditions: African green monkey, Vero cells.
In data set [7] the test system is macrophages infected with L. amazonensis. Put plainly: Measurement of reactive oxygen species (H2DCFDA). The settings on record: RAW 264.7 macrophages infected with L. amazonensis, 72 h. In kind it is cell-based. As for the experimental part: ROS levels, as produced by the macrophages infected with L. amazonensis and treated with β-ocimene, were determined by the H2DCFDA test. Macrophages were infected according to Section 2.5 and treated with β-ocimene (3.12–12.6 µM) for 72 h. At the end of the period, 10 µL of 20 µM H2 DCFDA dye was added. The plate was incubated at 37 °C for 30 min (in the dark), and the fluorescence intensity was measured using a spectrofluorometer (FLx800) with excitation at 485 nm and emission at 528 nm.

Data set [8] deals with RAW 264.7 macrophages. Put plainly: Lysosomal activity (neutral red uptake). The format is cell-based. The settings on record: 12.5 and 25 µM, 72 h, macrophages not stimulated by L. amazonensis. As for the experimental part: RAW 264.7 macrophages were added (10^5 cells per well) to the 96-well plate in 100 μL of DMEM with different concentrations of β-ocimene (3.12–25 μM). The plate was incubated for 72 h at 37 °C and 5% CO2. Afterwards, 10 μL of neutral red 0.2% DMSO solution was added and incubated for 30 min. The supernatant was then removed, and the wells were washed with 0.9% saline at 37 °C, and 100 μL of extraction solution was added to dissolve the neutral red inside the lysosomal secretion vesicles. After 30 min on a Kline shaker, the plate was read at 540 nm.

[9] abbreviates: RAW 264.7 macrophages infected with L. amazonensis.

Each structure is given as a SMILES string.

Turning to `C=C/C(C)=C/CC=C(C)C` [β-ocimene, beta-3,7-dimethyl-1,3,6-octatriene], the “phagocytic activity (zymosan particles)” value with RAW 264.7 macrophages [1] is “no increase in phagocytosis of zymosan particles”. Besides, the “plasmatic membrane permeability (SYTOX green fluorescent signal)” value in data set [2] is recorded as “significant increase in permeability”. For the same molecule, in data set [3] (setting [9]), the IL-6 levels result is on record as “decrease”, the IL-10 levels entry is reported as “decrease in levels of IL-10”, the IL-12 levels entry is “did not affect IL-12 levels” and the NO production entry is “increase”. In addition, the TNF-α production result in data set [3] (setting [9]) is listed as “increase in the production of TNF-α”. Further, in data set [3] (uninfected RAW 264.7 macrophages), the “cytokine levels of uninfected macrophages compared to the control” value is “no significant differences”. For the same molecule, the “morphological alterations (AFM)” value in data set [4] was “Loose membrane texture and abnormalities in the cell shape”. Moreover, in data set [5] (Leishmania amazonensis, RAW264.7, 72 h, infected RAW 264.7 macrophages, read-out: Intramacrophagic Amastigotes EC50), the concentration for a half-maximal effect (EC50) was determined as 0.89 ± 0.03 µM. For the same molecule, in data set [5] (intra-macrophagic amastigote form), the “times more selective than amphotericin B (selectivity index)” value worked out at 42.88 times. In addition, in data set [5] (low concentrations, 72 h), the “infection index (infection rate)” value is given as “able to reduce”, the “number of amastigotes per macrophage” value was “able to reduce” and the “percentage of infected macrophages” value is “able to reduce”. In addition, half-maximal cytotoxicity in data set [6] (CC50) was put at 299 ± 7.17 µM. In data set [6] (50 µM), the cytotoxicity at 50 µM was found to be 1.14 ± 0.1%. Also, the cytotoxicity at 100 µM in data set [6] (100 µM) stood at 6.04 ± 0.41%. The molecule further displayed a cytotoxicity at 200 µM in data set [6] (200 µM) of 36.2 ± 4.26%. In data set [6] (400 µM), this molecule came in with a cytotoxicity at 400 µM of 69.2 ± 4.9%. In addition, in data set [7], the ROS production result is reported as “increase”. Besides, the “lysosomal volume (neutral red retention)” value with RAW 264.7 macrophages [8] is reported as “increase in the volume of lysosomal vesicles”.

One may read the EC50 as the concentration needed to bring the measured effect to its halfway point. One may read the CC50 as the concentration giving 50% cytotoxicity. Read a low CC50 as greater toxicity to the cells.
